Measured values published in the NIST ThermoML archive (doi:10.1021/acs.jced.7b01049).

Experiment: xn = mol fraction of the nth substance listed
Conditions: for surface tension liquid-gas / mass density: discharge crucible method; for mass density / viscosity: 100 kPa, Liquid; for viscosity: discharge crucible

[Pb] [lead] + [Sb]
Conditions | mass density [kg/m3] | surface tension liquid-gas [mN/m] | viscosity [mPa·s]
573 K, x2 = 0.1675 | 10206 | 437.1 | 2.565
623 K, x2 = 0.1675 | 10142 | 433.7 | 2.262
673 K, x2 = 0.1675 | 10087 | 429.9 | 1.999
673 K, x2 = 0.4 | 9263 | 418.3 | 1.873
723 K, x2 = 0.1675 | 10019 | 426.6 | 1.836
723 K, x2 = 0.4 | 9201 | 414.6 | 1.721
773 K, x2 = 0.1675 | 9963 | 422.8 | 1.694
773 K, x2 = 0.4 | 9143 | 411.5 | 1.573
773 K, x2 = 0.6 | 8244 | 400.5 | 1.561
823 K, x2 = 0.1675 | 9905 | 419.1 | 1.583
823 K, x2 = 0.4 | 9095 | 407.8 | 1.475
823 K, x2 = 0.6 | 8185 | 397.1 | 1.449
873 K, x2 = 0.1675 | 9862 | 415.6 | 1.495
873 K, x2 = 0.4 | 9042 | 403.9 | 1.358
873 K, x2 = 0.6 | 8138 | 393.9 | 1.333
873 K, x2 = 0.9 | 6977 | 376.2 | 1.539
923 K, x2 = 0.1675 | 9814 | 411.9 | 1.425
923 K, x2 = 0.4 | 8991 | 400.2 | 1.266
923 K, x2 = 0.6 | 8098 | 390.7 | 1.211
923 K, x2 = 0.9 | 6938 | 372.6 | 1.357
973 K, x2 = 0.9 | 6892 | 368.6 | 1.212
1023 K, x2 = 0.9 | 6856 | 364.4 | 1.118
